Source: patent US20170362621A1, “ENGINEERED MULTIFUNCTIONAL ENZYMES AND METHODS OF USE” (Danisco US Inc., priority 2014, published 2017)
Substitutions are numbered along the chain they refer to. In names and notes the source's numbering stands.

How the values were obtained:
[1] = biological target: T1, Trichoderma reesei Bgl1 variant Bgl1-var-02, V43F (numbered per mature Bgl1, SEQ ID NO:3) (Trichoderma reesei, UniProt Q12715, V74F); experiment: steady state kinetics, hydrolysis of pNpG; type: biochemical
T1 construct: diluted fermentation product
T1 sequence (Q12715 32-744 V74F): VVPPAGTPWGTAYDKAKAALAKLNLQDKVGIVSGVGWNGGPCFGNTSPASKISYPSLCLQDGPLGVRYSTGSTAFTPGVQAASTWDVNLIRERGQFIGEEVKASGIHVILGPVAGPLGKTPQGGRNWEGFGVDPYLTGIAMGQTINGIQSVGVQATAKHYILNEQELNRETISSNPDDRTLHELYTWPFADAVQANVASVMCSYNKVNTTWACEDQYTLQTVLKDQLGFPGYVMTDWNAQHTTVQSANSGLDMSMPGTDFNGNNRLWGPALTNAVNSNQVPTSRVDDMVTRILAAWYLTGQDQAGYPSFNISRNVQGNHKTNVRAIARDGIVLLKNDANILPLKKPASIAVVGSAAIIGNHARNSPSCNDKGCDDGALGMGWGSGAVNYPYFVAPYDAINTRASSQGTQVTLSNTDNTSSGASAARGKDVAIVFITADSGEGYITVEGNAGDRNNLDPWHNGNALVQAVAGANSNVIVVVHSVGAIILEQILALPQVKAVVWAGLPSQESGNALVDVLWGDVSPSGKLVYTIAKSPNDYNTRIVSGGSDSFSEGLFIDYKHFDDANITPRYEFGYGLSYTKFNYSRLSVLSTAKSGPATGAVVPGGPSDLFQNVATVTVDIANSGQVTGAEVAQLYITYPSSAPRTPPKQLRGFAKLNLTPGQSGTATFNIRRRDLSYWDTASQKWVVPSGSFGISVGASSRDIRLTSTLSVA
Description: (§1) The Bgl1 variants of the table above were produced as follows. The nucleotide sequences encoding these variants were synthesized by an external vendor (BaseClear, Leiden, the Netherlands), and cloned into the pTTTpyr2 vector (see, e.g., published PCT application WO2014029808). Protoplasts of a Trichoderma reesei strain (e.g., the hexa-delete strain of International Publication WO05/001036) with its cbh1, cbh2, eg1, eg2, eg3, and bgl1 deleted) were transformed with plasmid DNA encoding the variants and wild type. The resulting transformants were fermented using standard Trichoderma reesei fermentation procedures.
(§2) Variants 02, 03 and 12 were diluted and incubated with varying concentrations of para-nitrophenol-beta-D-xylopyranoside (or para-nitrophenol-beta-D-xyloside) (pNpX) and para-nitrophenol-beta-D-glucopyranoside (pNpG) in the concentration range of 0.1-9 mM at 37° C. for 30 minutes. Reactions were stopped by addition of 100 μL 0.5 M sodium carbonate and absorbance was measured at 410 nm. Background subtracted OD410 absorbances were plotted against substrate concentration (FIG. 6B-E) and the data was fitted with a function for Michaelis-Menten kinetics using the statistical software package R. Michaelis constants and relative maximum velocities for hydrolysis of pNpX and pNpG were reported in Tables 6 and 7, below, respectively.

[2] = biological target: T2, Trichoderma reesei beta-glucosidase I (Bgl1), wild type, SEQ ID NO:2 (mature SEQ ID NO:3) (Trichoderma reesei, UniProt Q12715); experiment: steady state kinetics, hydrolysis of pNpG; type: biochemical; conditions: 0.1-9 mM, 37° C., 30 minutes
T2 construct: secreted mature protein
T2 sequence (Q12715 32-744): T1 sequence (Q12715 32-744 V74F) with F43V
Description: as §1, §2

[3] = biological target: T3, Trichoderma reesei Bgl1 variant Bgl1-var-12, V43F/W237A (numbered per mature Bgl1, SEQ ID NO:3) (Trichoderma reesei, UniProt Q12715, V74F/W268A); experiment: steady state kinetics, hydrolysis of pNpG; type: biochemical
T3 construct: diluted fermentation product
T3 sequence (Q12715 32-744 V74F/W268A): T1 sequence (Q12715 32-744 V74F) with W237A
Description: as §1, §2

[4] = biological target: T4, Trichoderma reesei Bgl1 variant Bgl1-var-03, V43L (numbered per mature Bgl1, SEQ ID NO:3) (Trichoderma reesei, UniProt Q12715, V74L); experiment: steady state kinetics, hydrolysis of pNpG; type: biochemical
T4 construct: diluted fermentation product
T4 sequence (Q12715 32-744 V74L): T1 sequence (Q12715 32-744 V74F) with F43L
Description: as §1, §2

[5] = biological target: T1, Trichoderma reesei Bgl1 variant Bgl1-var-02, V43F (numbered per mature Bgl1, SEQ ID NO:3); experiment: steady state kinetics, hydrolysis of pNpX; type: biochemical
Description: as §1, §2
(§3) It was noted that the data for pNpX hydrolysis by the wild type Bgl1 could not be fitted with the Michaelis-Menten function. In order to calculate a Michalis constant the maximum velocity obtained for Variant 03 was used.

[6] = biological target: T2, Trichoderma reesei beta-glucosidase I (Bgl1), wild type, SEQ ID NO:2 (mature SEQ ID NO:3); experiment: steady state kinetics, hydrolysis of pNpX; type: biochemical; conditions: not fitted, maximum velocity obtained for Variant 03 was used
Description: as §1, §2, §3

[7] = biological target: T3, Trichoderma reesei Bgl1 variant Bgl1-var-12, V43F/W237A (numbered per mature Bgl1, SEQ ID NO:3); experiment: steady state kinetics, hydrolysis of pNpX; type: biochemical
Description: as §1, §2, §3

[8] = biological target: T4, Trichoderma reesei Bgl1 variant Bgl1-var-03, V43L (numbered per mature Bgl1, SEQ ID NO:3); experiment: steady state kinetics, hydrolysis of pNpX; type: biochemical
Description: as §1, §2, §3

[9] = substrate: O=[N+]([O-])c1ccc(O[C@@H]2OC[C@@H](O)[C@H](O)[C@H]2O)cc1; experiment: steady state kinetics, hydrolysis of pNpX; type: biochemical, Trichoderma reesei; conditions: other: pNpX, 37° C.
Description: as §1, §2, §3

[10] = substrate: O=[N+]([O-])c1ccc(O[C@@H]2O[C@H](CO)[C@@H](O)[C@H](O)[C@H]2O)cc1; experiment: steady state kinetics, hydrolysis of pNpG; type: biochemical, Trichoderma reesei; conditions: other: pNpG, 0.1-9 mM, 37° C., 30 minutes
Description: as §1, §2

[11] = fold reduction versus wild type, Table 7
[12] = pNpG, 0.1-9 mM, 37° C., 30 minutes
[13] = pNpX, 0.1-9 mM, 37° C., 30 minutes

## O=[N+]([O-])c1ccc(O[C@@H]2O[C@H](CO)[C@@H](O)[C@H](O)[C@H]2O)cc1 [pNpG, para-nitrophenol-beta-D-glucopyranoside]
[1]; [11]
  efficiency for hydrolysis of pNpG, reduced relative to Bgl1 wild type: 8 ×
[1]; [12]
  Relative Vmax: 46 ± 6
[2]
  Relative Vmax: 100.0 ± 0.1
[3]; [11]
  efficiency for hydrolysis of pNpG, reduced relative to Bgl1 wild type: 26 ×
[3]; [12]
  Relative Vmax: 27 ± 10
[4]; [12]
  Relative Vmax: 87 ± 2
[4]; versus wild type, Table 7
  efficiency for hydrolysis of pNpG compared with Bgl1 wild type: approximately equal

## O=[N+]([O-])c1ccc(O[C@@H]2OC[C@@H](O)[C@H](O)[C@H]2O)cc1 [pNpX, para-nitrophenol-beta-D-xylopyranoside]
[5]; [13]
  Relative Vmax: 93 ± 4
[5]; ratio to wild type, Table 6
  more efficient hydrolysis of pNpX as compared to the wild type Bgl1: 6-7 fold
[6]
  Relative Vmax: 100 ± 4
[7]; [13]
  Relative Vmax: 89 ± 4
[7]; ratio to wild type, Table 6
  higher efficiency of pNpX hydrolysis than the wild type: about 2 ×
[8]; [13]
  Relative Vmax: 100 ± 4
[8]; ratio to wild type, Table 6
  more efficient hydrolysis of pNpX as compared to the wild type Bgl1: 6-7 fold

B1: Trichoderma reesei Bgl1 variant Bgl1-var-02, V43F (numbered per mature Bgl1, SEQ ID NO:3) (Trichoderma reesei; V74F) (protein)
chain: T1 sequence (Q12715 32-744 V74F)
notes: diluted fermentation product
[9]; 0.1-9 mM, 30 minutes
  Km: 5.7 mM
[10]
  Km: 4.8 mM

B2: Trichoderma reesei beta-glucosidase I (Bgl1), wild type, SEQ ID NO:2 (mature SEQ ID NO:3) (Trichoderma reesei) (protein)
chain: T1 sequence (Q12715 32-744 V74F) with F43V
notes: secreted mature protein
[9]; data could not be fitted, calculated with the maximum velocity obtained for Variant 03
  Km: 45.1 mM
[10]
  Km: 1.3 mM

B3: Trichoderma reesei Bgl1 variant Bgl1-var-12, V43F/W237A (numbered per mature Bgl1, SEQ ID NO:3) (Trichoderma reesei; V74F/W268A) (protein)
chain: T1 sequence (Q12715 32-744 V74F) with W237A
notes: diluted fermentation product
[9]; 0.1-9 mM, 30 minutes
  Km: 18.4 mM
[10]
  Km: 9.1 mM

B4: Trichoderma reesei Bgl1 variant Bgl1-var-03, V43L (numbered per mature Bgl1, SEQ ID NO:3) (Trichoderma reesei; V74L) (protein)
chain: T1 sequence (Q12715 32-744 V74F) with F43L
notes: diluted fermentation product
[9]; 0.1-9 mM, 30 minutes
  Km: 7 mM
[10]
  Km: 1.17 mM
